Earlier results as cited in patent US7417156B2, “Orally active, antimalarial, anticancer, artemisinin-derived trioxane dimers” (Johns Hopkins University, priority 2002, dated 2008).

Conditions: in vivo; cited from earlier work

C[C@H]1[C@@H](O)O[C@@H]2O[C@@]3(C)CC[C@H]4[C@H](C)CC[C@@H]1[C@@]24OO3 [Compound 31, dihydroartemisinin]
half-life in plasma: less than two hours
